Laboratory results as given in article PMC9065260 (Frontiers in Pharmacology, 2022).

Assays:
KYSE450 cells = test: MTT assay for cell proliferation and cytotoxicity; assay type: cell-based; details: Homo sapiens, KYSE-450; MTT, 48 h, mean ± SD; read-out: IC50 KYSE450
Description: (§1) The compounds were dissolved in DMSO to make a 50 mM stock solution and were diluted to the concentration of working solutions with the complete growth medium before administration.
(§2) Cells were seeded in 96-well plates with densities of 2,200–2,500 cells/well in 100 μL. One day after seeding, the concentration of the test compounds between 0 and 50 μM, 0.1% DMSO was added to cells as control. […] After 48 h, MTT was added and incubated in the plate for 1–4 h in the incubator.

H1650 cells = test: MTT assay for cell proliferation and cytotoxicity; assay type: cell-based; details: Homo sapiens, NCI-H1650; MTT, 48 h, mean ± SD; read-out: IC50 H1650
Description: as §1, §2

KYSE410 cells = test: MTT assay for cell proliferation and cytotoxicity; assay type: cell-based; details: Homo sapiens, KYSE-410; MTT, 48 h, mean ± SD; read-out: IC50 KYSE410
Description: as §1, §2

HCC827 cells = test: MTT assay for cell proliferation and cytotoxicity; assay type: cell-based; details: Homo sapiens, 48 h, mean ± SD
Description: as §1, §2

KYSE70 cells = test: MTT assay for cell proliferation and cytotoxicity; assay type: cell-based; details: Homo sapiens, KYSE-70; MTT, 48 h, mean ± SD; read-out: IC50 KYSE70
Description: as §1, §2

[1] = system: human esophageal epithelial cell SHEE; test: MTT assay, toxicity against normal cells; assay type: cell-based; details: MTT, normal human esophageal epithelial cells, mean ± SD, read-out: IC50 SHEE
Description: Cells were seeded in 96-well plates with densities of 2,200–2,500 cells/well in 100 μL. One day after seeding, the concentration of the test compounds between 0 and 50 μM, 0.1% DMSO was added to cells as control. Approximately 2200-2500 transfected cells in 100 μL were incubated in quintuplicate in 96-well plates. After 48 h, MTT was added and incubated in the plate for 1–4 h in the incubator.

`CCOc1cccc(-n2cc(-c3cccc(Nc4ncnc5cc(OCCOC)c(OCCOC)cc45)c3)nn2)c1` [Compound 3n, [6,7-Bis-(2-Methoxy-Ethoxy)-Quinazolin-4-yl]-{3-[1-(3-Ethoxy-Phenyl)-1H-(1,2,3)Triazol-4-yl]-Phenyl}-Amine] gave an IC50 (KYSE450 cells) of 12.8 ± 1.25 µM, an IC50 (H1650 cells) of 35.4 ± 3.46 µM and a melting point of 110 to 114 °C. It also gave an IC50 (KYSE410 cells) of 49.7 ± 4.57 µM, an IC50 (HCC827 cells) of 13.7 ± 1.34 µM and an IC50 (KYSE70 cells) of over 50 µM. The IC50 [1] was 22.6 ± 2.31 µM.
For `COCCOc1cc2ncnc(Nc3cccc(-c4cn(Cc5ccccc5)nn4)c3)c2cc1OCCOC` [Compound 3a, {3-[1-Benzyl-1H-(1,2,3)Triazol-4-yl]-Phenyl}-[6,7-Bis-(2-Methoxy-Ethoxy)-Quinazolin-4-yl]-Amine], the IC50 (KYSE450 cells) was 5.27 ± 0.31 µM, the IC50 (H1650 cells) was 34 ± 2.77 µM and the melting point was 89 to 92 °C. It also gave an IC50 (KYSE410 cells) of 9.7 ± 0.75 µM, an IC50 (HCC827 cells) of over 50 µM and an IC50 (KYSE70 cells) of 5.85 ± 0.28 µM. It also gave an IC50 [1] of over 50 µM.
`COCCOc1cc2ncnc(Nc3cccc(-c4cn(-c5ccc(C)cc5)nn4)c3)c2cc1OCCOC` [Compound 3l, [6,7-Bis-(2-Methoxy-Ethoxy)-Quinazolin-4-yl]-[3-(1-p-Tolyl-1H-(1,2,3)Triazol-4-yl)-Phenyl]-Amine] gave an IC50 (KYSE450 cells) of over 50 µM, an IC50 (H1650 cells) of 10 ± 0.79 µM and a melting point of 95 to 98 °C. The IC50 (KYSE410 cells) was over 50 µM, the IC50 (HCC827 cells) was 4.61 ± 0.28 µM and the IC50 (KYSE70 cells) was 11.1 ± 0.94 µM. For the same compound, the IC50 [1] was 4.82 ± 0.32 µM.
With `COCCOc1cc2ncnc(Nc3cccc(-c4cn(-c5ccccc5)nn4)c3)c2cc1OCCOC` [Compound 3o, [6,7-Bis-(2-Methoxy-Ethoxy)-Quinazolin-4-yl]-[3-(1-Phenyl-1H-(1,2,3)Triazol-4-yl)-Phenyl]-Amine] the IC50 (KYSE450 cells) was 46.8 ± 4.63 µM, the IC50 (H1650 cells) was over 50 µM and the IC50 (KYSE410 cells) was 49.5 ± 5.01 µM. It also gave an IC50 (HCC827 cells) of over 50 µM, an IC50 (KYSE70 cells) of over 50 µM and an IC50 [1] of 14.2 ± 1.61 µM.
Compound `COCCOc1cc2ncnc(Nc3cccc(-c4cn(-c5ccc(OC)cc5OC)nn4)c3)c2cc1OCCOC` [Compound 3q, [6,7-Bis-(2-Methoxy-Ethoxy)-Quinazolin-4-yl]-{3-[1-(2,4-Dimethoxy-Phenyl)-1H-(1,2,3)Triazol-4-yl]-Phenyl}-Amine] has an IC50 (KYSE450 cells) of over 50 µM, an IC50 (H1650 cells) of over 50 µM and a melting point of 85 to 88 °C. It also gave an IC50 (KYSE410 cells) of 12.3 ± 0.93 µM, an IC50 (HCC827 cells) of over 50 µM and an IC50 (KYSE70 cells) of over 50 µM. For the same compound, the IC50 [1] was 28.1 ± 2.47 µM.
For `COCCOc1cc2ncnc(Nc3cccc(-c4cn(Cc5ccccc5I)nn4)c3)c2cc1OCCOC` [Compound 3b, [6,7-Bis-(2-Methoxy-Ethoxy)-Quinazolin-4-yl]-{3-[1-(2-Iodo-Benzyl)-1H-(1,2,3)Triazol-4-yl]-Phenyl}-Amine], the IC50 (KYSE450 cells) was 20.6 ± 1.87 µM, the IC50 (H1650 cells) was over 50 µM and the melting point was 93 to 96 °C. The IC50 (KYSE410 cells) was 17.6 ± 1.37 µM, the IC50 (HCC827 cells) was over 50 µM and the IC50 (KYSE70 cells) was 9.03 ± 0.82 µM. For the same compound, the IC50 [1] was 8.05 ± 0.71 µM.
Work on `COCCOc1cc2ncnc(Nc3cccc(-c4cn(-c5ccc(F)cc5)nn4)c3)c2cc1OCCOC` [Compound 3g, [6,7-Bis-(2-Methoxy-Ethoxy)-Quinazolin-4-yl]-{3-[1-(4-Fluoro-Phenyl)-1H-(1,2,3)Triazol-4-yl]-Phenyl}-Amine] yielded an IC50 (KYSE450 cells) of 44.5 ± 4.23 µM, an IC50 (H1650 cells) of 29.6 ± 2.18 µM and a melting point of 88 to 91 °C. For the same compound, the IC50 (KYSE410 cells) was over 50 µM, the IC50 (HCC827 cells) was over 50 µM and the IC50 (KYSE70 cells) was 5.46 ± 0.23 µM. It also gave an IC50 [1] of 8.01 ± 0.83 µM.
In the case of `COCCOc1cc2ncnc(Nc3cccc(-c4cn(-c5ccccc5Br)nn4)c3)c2cc1OCCOC` [Compound 3i, [6,7-Bis-(2-Methoxy-Ethoxy)-Quinazolin-4-yl]-{3-[1-(2-Bromo-Phenyl)-1H-(1,2,3)Triazol-4-yl]-Phenyl}-Amine], the IC50 (KYSE450 cells) is reported as over 50 µM, the IC50 (H1650 cells) is reported as over 50 µM and the melting point is reported as 93 to 97 °C. For the same compound, the IC50 (KYSE410 cells) was over 50 µM, the IC50 (HCC827 cells) was 24.2 ± 2.34 µM and the IC50 (KYSE70 cells) was 36.1 ± 3.17 µM. It also gave an IC50 [1] of 6.23 ± 0.62 µM.
For `COCCOc1cc2ncnc(Nc3cccc(-c4cn(CCc5ccccc5)nn4)c3)c2cc1OCCOC` [Compound 3s, [6,7-Bis-(2-Methoxy-Ethoxy)-Quinazolin-4-yl]-{3-[1-Phenethyl-1H-(1,2,3)Triazol-4-yl]-Phenyl}-Amine], the IC50 (KYSE450 cells) was over 50 µM, the IC50 (H1650 cells) was over 50 µM and the melting point was 109 to 112 °C. It also gave an IC50 (KYSE410 cells) of over 50 µM, an IC50 (HCC827 cells) of over 50 µM and an IC50 (KYSE70 cells) of over 50 µM. It also gave an IC50 [1] of 33.3 ± 3.43 µM.
With `COCCOc1cc2ncnc(Nc3cccc(-c4cn(-c5ccccc5Cl)nn4)c3)c2cc1OCCOC` [Compound 3h, [6,7-Bis-(2-Methoxy-Ethoxy)-Quinazolin-4-yl]-{3-[1-(2-Chloro-Phenyl)-1H-(1,2,3)Triazol-4-yl]-Phenyl}-Amine] the IC50 (KYSE450 cells) was over 50 µM, the IC50 (H1650 cells) was over 50 µM and the melting point was 131 to 134 °C. It also gave an IC50 (KYSE410 cells) of over 50 µM, an IC50 (HCC827 cells) of over 50 µM and an IC50 (KYSE70 cells) of over 50 µM. For the same compound, the IC50 [1] was 6.03 ± 0.57 µM.
In the case of `COCCOc1cc2ncnc(Nc3cccc(-c4cn(-c5ccc(C)cc5O)nn4)c3)c2cc1OCCOC` [Compound 3r, 2-(4-{3-[6,7-Bis-(2-Methoxy-Ethoxy)-Quinazolin-4-Ylamino]-Phenyl}-(1,2,3)Triazol-1-yl)-5-Methyl-Phenol], the IC50 (KYSE450 cells) is reported as 8.2 ± 0.67 µM, the IC50 (H1650 cells) is reported as 4.32 ± 0.27 µM and the melting point is reported as 100 to 103 °C. The IC50 (KYSE410 cells) was 8.74 ± 0.74 µM, the IC50 (HCC827 cells) was 12.4 ± 1.07 µM and the IC50 (KYSE70 cells) was 5.85 ± 0.52 µM. The IC50 [1] was over 50 µM.
Compound `COCCOc1cc2ncnc(Nc3cccc(-c4cn(Cc5ccccc5Br)nn4)c3)c2cc1OCCOC` [Compound 3c, [6,7-Bis-(2-Methoxy-Ethoxy)-Quinazolin-4-yl]-{3-[1-(2-Bromo-Benzyl)-1H-(1,2,3)Triazol-4-yl]-Phenyl}-Amine] has an IC50 (KYSE450 cells) of 5.47 ± 0.29 µM, an IC50 (H1650 cells) of 5.72 ± 0.33 µM and a melting point of 94 to 97 °C. For the same compound, the IC50 (KYSE410 cells) was over 50 µM, the IC50 (HCC827 cells) was over 50 µM and the IC50 (KYSE70 cells) was 5.35 ± 0.34 µM. It also gave an IC50 [1] of 22.4 ± 2.53 µM.
With `COCCOc1cc2ncnc(Nc3cccc(-c4cn(-c5cccc(OC)c5)nn4)c3)c2cc1OCCOC` [Compound 3e, [6,7-Bis-(2-Methoxy-Ethoxy)-Quinazolin-4-yl]-{3-[1-(3-Methoxy-Phenyl)-1H-(1,2,3)Triazol-4-yl]-Phenyl}-Amine] the IC50 (KYSE450 cells) was 6.25 ± 0.35 µM, the IC50 (H1650 cells) was 21.1 ± 1.74 µM and the IC50 (KYSE410 cells) was over 50 µM. The IC50 (HCC827 cells) was over 50 µM, the IC50 (KYSE70 cells) was 12.6 ± 1.01 µM and the IC50 [1] was over 50 µM.
In the case of `COCCOc1cc2ncnc(Nc3cccc(-c4cn(-c5ccccc5F)nn4)c3)c2cc1OCCOC` [Compound 3f, [6,7-Bis-(2-Methoxy-Ethoxy)-Quinazolin-4-yl]-{3-[1-(2-Fluoro-Phenyl)-1H-(1,2,3)Triazol-4-yl]-Phenyl}-Amine], the IC50 (KYSE450 cells) is reported as 34.2 ± 3.01 µM, the IC50 (H1650 cells) is reported as over 50 µM and the melting point is reported as 83 to 86 °C. For the same compound, the IC50 (KYSE410 cells) was over 50 µM, the IC50 (HCC827 cells) was 17.8 ± 1.61 µM and the IC50 (KYSE70 cells) was over 50 µM. For the same compound, the IC50 [1] was 12.1 ± 1.33 µM.
Compound `COCCOc1cc2ncnc(Nc3cccc(-c4cn(-c5ccccc5OC)nn4)c3)c2cc1OCCOC` [Compound 3k, [6,7-Bis-(2-Methoxy-Ethoxy)-Quinazolin-4-yl]-{3-[1-(2-Methoxy-Phenyl)-1H-[1,2,3]Triazol-4-yl]-Phenyl}-Amine] has an IC50 (KYSE450 cells) of 20 ± 2.25 µM, an IC50 (H1650 cells) of 16 ± 1.69 µM and a melting point of 87 to 90 °C. The IC50 (KYSE410 cells) was 32 ± 3.25 µM, the IC50 (HCC827 cells) was 6.18 ± 0.61 µM and the IC50 (KYSE70 cells) was 16 ± 1.53 µM. It also gave an IC50 [1] of 10.3 ± 0.96 µM.
`COCCOc1cc2ncnc(Nc3cccc(-c4cn(-c5ccc(Br)cc5)nn4)c3)c2cc1OCCOC` [Compound 3j, [6,7-Bis-(2-Methoxy-Ethoxy)-Quinazolin-4-yl]-{3-[1-(4-Bromo-Phenyl)-1H-(1,2,3)Triazol-4-yl]-Phenyl}-Amine] gave an IC50 (KYSE450 cells) of 3.6 ± 0.27 µM, an IC50 (H1650 cells) of 4.98 ± 0.17 µM and a melting point of 105 to 108 °C. For the same compound, the IC50 (KYSE410 cells) was over 50 µM, the IC50 (HCC827 cells) was 6.27 ± 0.42 µM and the IC50 (KYSE70 cells) was 3.72 ± 0.33 µM. It also gave an IC50 [1] of 7.2 ± 0.63 µM.
